One experiment concerns the target CDK4 (Homo sapiens (Human), UniProt P11802). In words: In vitro kinase inhibition, luminescence (ADP-Glo) with retinoblastoma substrate. Format: biochemical. In general terms: In ADP-Glo the light output rises with the ADP produced.
Another experiment has as its target CDK6 (Homo sapiens (Human), UniProt Q00534). Description: biochemical. The class given is biochemical.
The target of another experiment is CDK1 (cyclin B) (Homo sapiens (Human), UniProt P06493). In words: Z'-LYTE kinase assay. The class given is biochemical. The source says: The following equations were used for Z′-LYTE™ Screening Assay Data Analysis.
In the next experiment the target is CDK2 (cyclin A) (Homo sapiens (Human), UniProt P24941). In words: Z'-LYTE kinase assay. The class given is biochemical. On the procedure: IC50 values of compounds against CDK2 (cyclin A) were determined by Z'-LYTETM. […] The following equations were used for Z'-LYTETM Screening Assay Data Analysis.
The target in the next experiment is FMS kinase (Homo sapiens (Human), UniProt P07333). In words: LanthaScreen kinase assay (ATP, fluorescent-PolyGT substrate, TR-FRET). Format: biochemical. In general terms: TR-FRET usually uses a lanthanide donor and a delayed reading to cut background.
In the next experiment the test system is MCF-7. Description: Cancer cell proliferation assay, single agent. Particulars: Homo sapiens. Format: cell-based.
The subject of another experiment is DU4475. Description: Cancer cell proliferation assay, single agent. The class given is cell-based. Particulars: Homo sapiens.
The target in another experiment is PI3Kδ kinase (Homo sapiens (Human), UniProt O00329). Description: PI3Kδ kinase ADP-Glo assay (Reaction Biology Corporation). Particulars: read-out: PI3Kδ IC50.
A further experiment deals with CDK7 (cyclin H) (Homo sapiens (Human), UniProt P50613). Description: Adapta Assay. The class given is biochemical. The source says:
The following equations were used for Adapta™ Assay Data Analysis.

Another experiment has as its target CDK9 (cyclin K) (Homo sapiens (Human), UniProt P50750). Description: LanthaScreen Eu Kinase Binding Assay. Particulars: read-out: CDK9/K IC50.
In a further experiment the target is CDK5 (p25) (Homo sapiens (Human), UniProt Q00535). Description: Z'-LYTE kinase assay. The class given is biochemical. The source says: The following equations were used for Z'-LYTETM Screening Assay Data Analysis.
[1] abbreviates: MCF7, read-out: IC50 (nM) MCF-7.
Setting [2] is: DU-4475, read-out: IC50 (nM) DU4475.
Setting [3] is: MCF7, MCF-7 cells, treated for 24-168 hours, read-out: IC50 (nM) MCF-7.
Setting [4] is: DU-4475, DU4475 cells, treated for 24-168 hours, read-out: IC50 (nM) DU4475.

SMILES strings stand for the structures. Read-outs that look alike come from different tables or passages of the source.

Sequence of CDK1 (cyclin B) (P06493 whole entry): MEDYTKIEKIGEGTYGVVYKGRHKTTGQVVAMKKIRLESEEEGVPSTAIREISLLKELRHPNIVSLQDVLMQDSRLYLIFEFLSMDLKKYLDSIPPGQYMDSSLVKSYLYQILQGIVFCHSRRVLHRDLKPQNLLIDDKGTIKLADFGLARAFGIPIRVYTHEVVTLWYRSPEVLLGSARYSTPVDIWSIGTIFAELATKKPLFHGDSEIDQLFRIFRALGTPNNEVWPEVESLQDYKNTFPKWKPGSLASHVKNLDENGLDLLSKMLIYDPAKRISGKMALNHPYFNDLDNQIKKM
Sequence of CDK1 (cyclin B) (P14635 whole entry partner): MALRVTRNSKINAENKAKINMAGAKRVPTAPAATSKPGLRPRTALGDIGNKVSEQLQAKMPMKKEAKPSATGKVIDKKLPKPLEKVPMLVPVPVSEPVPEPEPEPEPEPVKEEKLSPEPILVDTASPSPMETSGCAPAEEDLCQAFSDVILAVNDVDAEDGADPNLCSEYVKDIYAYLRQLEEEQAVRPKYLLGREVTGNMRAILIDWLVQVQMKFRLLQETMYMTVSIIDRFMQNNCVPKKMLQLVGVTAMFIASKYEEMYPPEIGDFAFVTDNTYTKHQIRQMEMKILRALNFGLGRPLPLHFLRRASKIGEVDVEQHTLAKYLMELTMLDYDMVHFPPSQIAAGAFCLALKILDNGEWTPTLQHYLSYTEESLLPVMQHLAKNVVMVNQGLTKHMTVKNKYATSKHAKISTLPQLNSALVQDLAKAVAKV
Sequence of CDK7 (cyclin H) (P50613 whole entry): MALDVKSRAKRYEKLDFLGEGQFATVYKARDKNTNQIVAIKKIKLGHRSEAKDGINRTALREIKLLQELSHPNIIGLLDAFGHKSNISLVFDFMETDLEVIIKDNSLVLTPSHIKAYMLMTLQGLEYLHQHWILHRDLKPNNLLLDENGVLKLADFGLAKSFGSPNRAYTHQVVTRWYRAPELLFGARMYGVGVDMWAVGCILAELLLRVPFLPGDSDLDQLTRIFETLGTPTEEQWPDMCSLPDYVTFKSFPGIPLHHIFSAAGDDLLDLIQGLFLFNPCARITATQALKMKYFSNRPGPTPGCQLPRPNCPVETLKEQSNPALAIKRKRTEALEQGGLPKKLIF
Sequence of CDK7 (cyclin H) (P51946 whole entry partner): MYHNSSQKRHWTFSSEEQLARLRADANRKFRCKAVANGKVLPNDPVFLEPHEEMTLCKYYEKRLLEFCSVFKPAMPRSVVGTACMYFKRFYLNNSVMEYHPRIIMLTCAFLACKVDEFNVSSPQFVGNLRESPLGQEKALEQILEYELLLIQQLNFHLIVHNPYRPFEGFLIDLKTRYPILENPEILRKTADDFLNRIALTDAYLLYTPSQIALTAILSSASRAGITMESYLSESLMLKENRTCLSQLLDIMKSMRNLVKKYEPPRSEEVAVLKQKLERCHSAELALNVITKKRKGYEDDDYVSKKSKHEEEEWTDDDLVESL
Sequence of CDK7 (cyclin H) (P51948 whole entry partner): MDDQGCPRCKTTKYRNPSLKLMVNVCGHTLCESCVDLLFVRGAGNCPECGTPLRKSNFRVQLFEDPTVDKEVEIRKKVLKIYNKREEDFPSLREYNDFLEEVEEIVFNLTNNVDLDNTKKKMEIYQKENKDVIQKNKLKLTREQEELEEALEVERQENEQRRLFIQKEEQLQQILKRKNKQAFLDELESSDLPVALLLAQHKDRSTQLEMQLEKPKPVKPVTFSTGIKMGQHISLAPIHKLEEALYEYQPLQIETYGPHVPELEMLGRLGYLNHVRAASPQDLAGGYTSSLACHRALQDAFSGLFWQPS
Sequence of CDK4 (P11802 whole entry): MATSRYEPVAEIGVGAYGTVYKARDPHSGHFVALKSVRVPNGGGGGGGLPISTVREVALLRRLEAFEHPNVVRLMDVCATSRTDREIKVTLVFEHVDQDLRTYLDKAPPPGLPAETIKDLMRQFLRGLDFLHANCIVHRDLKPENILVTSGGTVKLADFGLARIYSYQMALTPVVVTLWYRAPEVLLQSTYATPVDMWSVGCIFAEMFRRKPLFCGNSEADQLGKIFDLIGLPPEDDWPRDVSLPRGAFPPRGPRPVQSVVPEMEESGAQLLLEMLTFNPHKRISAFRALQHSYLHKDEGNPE
Sequence of CDK4 (P24385 whole entry partner): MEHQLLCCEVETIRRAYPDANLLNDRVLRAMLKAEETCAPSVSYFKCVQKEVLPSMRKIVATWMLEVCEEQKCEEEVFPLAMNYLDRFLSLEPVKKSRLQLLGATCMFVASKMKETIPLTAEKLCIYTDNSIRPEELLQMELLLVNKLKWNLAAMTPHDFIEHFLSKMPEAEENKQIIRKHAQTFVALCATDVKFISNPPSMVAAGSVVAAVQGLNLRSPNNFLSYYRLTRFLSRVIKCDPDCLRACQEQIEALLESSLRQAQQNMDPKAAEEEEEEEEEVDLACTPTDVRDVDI
Sequence of FMS kinase (P07333 20-972): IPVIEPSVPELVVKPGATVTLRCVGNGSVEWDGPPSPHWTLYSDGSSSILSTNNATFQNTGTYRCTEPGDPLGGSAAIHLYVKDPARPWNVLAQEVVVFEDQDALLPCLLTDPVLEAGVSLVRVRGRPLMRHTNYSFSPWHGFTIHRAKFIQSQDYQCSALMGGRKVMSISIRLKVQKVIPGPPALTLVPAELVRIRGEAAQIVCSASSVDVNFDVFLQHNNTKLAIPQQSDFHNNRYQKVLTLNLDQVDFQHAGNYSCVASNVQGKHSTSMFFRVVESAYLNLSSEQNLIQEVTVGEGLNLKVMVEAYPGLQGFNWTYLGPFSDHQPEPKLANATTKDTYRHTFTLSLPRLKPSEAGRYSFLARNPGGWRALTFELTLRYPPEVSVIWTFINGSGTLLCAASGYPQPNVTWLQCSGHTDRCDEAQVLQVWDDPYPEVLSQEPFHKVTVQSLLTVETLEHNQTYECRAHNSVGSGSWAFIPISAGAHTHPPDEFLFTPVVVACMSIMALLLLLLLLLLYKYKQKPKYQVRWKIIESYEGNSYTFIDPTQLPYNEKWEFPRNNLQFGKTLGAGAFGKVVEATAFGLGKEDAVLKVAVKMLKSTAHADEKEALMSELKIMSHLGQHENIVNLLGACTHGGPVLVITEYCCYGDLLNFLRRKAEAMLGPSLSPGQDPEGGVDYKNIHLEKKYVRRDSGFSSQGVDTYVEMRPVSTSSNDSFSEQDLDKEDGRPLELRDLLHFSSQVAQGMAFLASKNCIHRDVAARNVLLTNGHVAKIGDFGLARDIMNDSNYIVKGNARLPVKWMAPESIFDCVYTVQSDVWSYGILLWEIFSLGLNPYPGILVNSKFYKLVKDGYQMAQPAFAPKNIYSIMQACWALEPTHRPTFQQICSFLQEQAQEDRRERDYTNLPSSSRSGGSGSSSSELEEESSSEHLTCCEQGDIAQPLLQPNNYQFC
Sequence of CDK9 (cyclin K) (P50750 whole entry): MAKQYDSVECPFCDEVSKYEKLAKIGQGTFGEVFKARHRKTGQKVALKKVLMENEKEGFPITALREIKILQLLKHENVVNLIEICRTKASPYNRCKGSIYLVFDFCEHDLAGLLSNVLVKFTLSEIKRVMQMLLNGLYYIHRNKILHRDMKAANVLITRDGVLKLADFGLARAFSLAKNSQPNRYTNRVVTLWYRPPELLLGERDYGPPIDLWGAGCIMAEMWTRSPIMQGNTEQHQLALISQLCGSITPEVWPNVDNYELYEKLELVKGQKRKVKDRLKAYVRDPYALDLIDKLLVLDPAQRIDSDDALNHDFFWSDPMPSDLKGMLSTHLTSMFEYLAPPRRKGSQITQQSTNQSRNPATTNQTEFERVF
Sequence of CDK9 (cyclin K) (O75909 whole entry partner): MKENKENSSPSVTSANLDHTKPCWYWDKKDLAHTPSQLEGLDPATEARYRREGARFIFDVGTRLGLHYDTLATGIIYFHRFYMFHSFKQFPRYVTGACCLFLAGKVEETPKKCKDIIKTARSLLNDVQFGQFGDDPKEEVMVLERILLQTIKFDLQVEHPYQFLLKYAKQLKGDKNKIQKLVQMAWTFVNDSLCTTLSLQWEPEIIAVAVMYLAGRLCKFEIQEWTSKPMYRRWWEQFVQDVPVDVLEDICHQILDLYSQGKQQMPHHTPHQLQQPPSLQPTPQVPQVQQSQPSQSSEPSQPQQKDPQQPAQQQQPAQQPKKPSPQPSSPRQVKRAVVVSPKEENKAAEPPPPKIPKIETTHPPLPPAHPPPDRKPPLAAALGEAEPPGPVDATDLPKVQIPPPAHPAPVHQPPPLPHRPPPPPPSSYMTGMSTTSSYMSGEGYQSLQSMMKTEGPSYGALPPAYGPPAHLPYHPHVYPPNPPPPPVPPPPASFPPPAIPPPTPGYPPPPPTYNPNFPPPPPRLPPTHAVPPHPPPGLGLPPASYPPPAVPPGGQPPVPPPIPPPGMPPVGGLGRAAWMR
Sequence of CDK5 (p25) (Q00535 whole entry): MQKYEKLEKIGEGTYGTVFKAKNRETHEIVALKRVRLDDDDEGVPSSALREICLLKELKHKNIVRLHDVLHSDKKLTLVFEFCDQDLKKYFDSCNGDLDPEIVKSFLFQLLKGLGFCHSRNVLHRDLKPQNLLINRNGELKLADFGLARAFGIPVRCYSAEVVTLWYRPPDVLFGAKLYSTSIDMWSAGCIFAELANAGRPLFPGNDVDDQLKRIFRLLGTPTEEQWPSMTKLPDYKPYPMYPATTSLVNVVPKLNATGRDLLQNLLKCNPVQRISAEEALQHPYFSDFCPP
Sequence of CDK5 (p25) (Q15078 99-307 partner): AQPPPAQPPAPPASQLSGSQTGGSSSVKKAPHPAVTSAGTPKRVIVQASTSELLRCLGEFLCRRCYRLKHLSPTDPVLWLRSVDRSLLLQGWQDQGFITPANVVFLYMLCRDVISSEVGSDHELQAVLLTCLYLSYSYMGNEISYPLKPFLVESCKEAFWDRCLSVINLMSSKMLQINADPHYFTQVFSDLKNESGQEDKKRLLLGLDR

With `Fc1cnc(Nc2ccc3c(n2)CCNC3)nc1-c1cc(F)c2c(c1)N(C1CCC1)CCO2` [Compound 482, N-(4-(4-cyclobutyl-8-fluoro-3,4-dihydro-2H-benzo[b][1,4]oxazin-6-yl)-5-fluoropyrimidin-2-yl)-5,6,7,8-tetrahydro-1,6-naphthyridin-2-amine], the IC50 turned out to be 3 nM against CDK4; 16 nM at CDK6; 155 nM at CDK1 (cyclin B); 29 nM against CDK2 (cyclin A); 1750 nM at FMS kinase; 230 nM with MCF-7 (setting [1]). Besides, the figures for the IC50 in the experiment with DU4475 (setting [2]) and at PI3Kδ kinase were 540 nM and greater than 50000 nM, respectively.
As for `CC(C)N1CCOc2c(F)cc(-c3nc(Nc4ccc(N5CCOCC5)cn4)ncc3F)cc21` [Compound 446, 5-fluoro-4-(8-fluoro-4-isopropyl-3,4-dihydro-2H-benzo[b][1,4]oxazin-6-yl)-N-(5-morpholinopyridin-2-yl)pyrimidin-2-amine], the IC50 was 3.9 nM on CDK4; 8.8 nM against CDK6; 679 nM on CDK1 (cyclin B); 68 nM against CDK2 (cyclin A); greater than 10000 nM against CDK7 (cyclin H); 1120 nM against FMS kinase. Also, the IC50 in the experiment on MCF-7 (setting [3]) stood at 850 nM; in the experiment with DU4475 (setting [4]), 385 nM; at CDK9 (cyclin K) it was 280 nM; at PI3Kδ kinase, 21800 nM.
Regarding `CC(C)CN1CCOc2c(F)cc(-c3nc(Nc4ccc5c(n4)CCNC5)ncc3F)cc21` [Compound 483, N-(5-fluoro-4-(8-fluoro-4-isobutyl-3,4-dihydro-2H-benzo[b][1,4]oxazin-6-yl)pyrimidin-2-yl)-5,6,7,8-tetrahydro-1,6-naphthyridin-2-amine], the IC50 is 25 nM on CDK4; 20 nM at CDK6; 181 nM against CDK1 (cyclin B); 44 nM against CDK2 (cyclin A); greater than 5000 nM at FMS kinase; 460 nM in the experiment on MCF-7 (setting [1]). Also, the IC50 in the experiment on DU4475 (setting [2]) is 665 nM; on PI3Kδ kinase it was greater than 50000 nM.
As for `CCN1CCN(Cc2ccc(Nc3ncc(F)c(-c4cc(F)c5c(c4)N(C(C)C)CCO5)n3)nc2)CC1` [Compound 4, N-(5-((4-ethylpiperazin-1-yl)methyl)pyridin-2-yl)-5-fluoro-4-(8-fluoro-4-isopropyl-3,4-dihydro-2H-benzo[b][1,4]oxazin-6-yl)pyrimidin-2-amine], the IC50 is 130 nM against CDK1 (cyclin B); 12 nM at CDK2 (cyclin A); 566 nM against FMS kinase; 110 nM in the experiment with MCF-7 (setting [1]); greater than 5000 nM at PI3Kδ kinase.
On to `CC(C)N1CCOc2c(F)cc(-c3nc(Nc4ccc(N5CCC(O)CC5)cn4)ncc3F)cc21` [Compound 447, 1-(6-((5-fluoro-4-(8-fluoro-4-isopropyl-3,4-dihydro-2H-benzo[b][1,4]oxazin-6-yl)pyrimidin-2-yl)amino)pyridin-3-yl)piperidin-4-ol], for which the IC50 against CDK4 was 1.1 nM; against CDK6, 1.6 nM; on CDK1 (cyclin B) it was 238 nM; at CDK2 (cyclin A), 36 nM; against CDK7 (cyclin H), greater than 10000 nM; at FMS kinase it was 1680 nM. The IC50 in the experiment with MCF-7 (setting [3]) was 300 nM; in the experiment with DU4475 (setting [4]), 230 nM; on CDK9 (cyclin K) it was 243 nM; at PI3Kδ kinase, greater than 50000 nM.
For the compound `CC(C)N1CCOc2c(F)cc(-c3nc(Nc4ccc(N5CCC(N(C)C)CC5)nc4)ncc3F)cc21` [Compound 38, N-(6-(4-(dimethylamino)piperidin-1-yl)pyridin-3-yl)-5-fluoro-4-(8-fluoro-4-isopropyl-3,4-dihydro-2H-benzo[b][1,4]oxazin-6-yl)pyrimidin-2-amine], the IC50 against CDK1 (cyclin B) worked out at 3 nM; at CDK7 (cyclin H) it was 163 nM; against FMS kinase, 40 nM; in the experiment on MCF-7 (setting [3]) it was 20 nM; in the experiment on DU4475 (setting [4]), 45 nM.
With `CC(C)N1CCOc2c(F)cc(-c3nc(Nc4ccc(C5CCN(C)C5)cn4)ncc3F)cc21` (stereo not shown) [Compound 498, 5-fluoro-4-(8-fluoro-4-isopropyl-3,4-dihydro-2H-benzo[b][1,4]oxazin-6-yl)-N-(5-(1-methylpyrrolidin-3-yl)pyridin-2-yl)pyrimidin-2-amine], the IC50 on CDK4 came out at 1 nM; on CDK6 it was 3 nM; against CDK1 (cyclin B), 223 nM; on CDK2 (cyclin A), 155 nM; in the experiment with MCF-7 (setting [3]), 170 nM; with DU4475 (setting [4]) it was 465 nM.
As for `Fc1cnc(Nc2ccc3c(n2)CCNC3)nc1-c1cc(F)c2c(c1)N(C1CCCC1)CCO2` [Compound 509, N-(4-(4-cyclopentyl-8-fluoro-3,4-dihydro-2H-benzo[b][1,4]oxazin-6-yl)-5-fluoropyrimidin-2-yl)-5,6,7,8-tetrahydro-1,6-naphthyridin-2-amine], the IC50 is 5 nM against CDK4; 10 nM at CDK6; 78 nM against CDK1 (cyclin B); 33 nM on CDK2 (cyclin A); 1090 nM in the experiment with MCF-7 (setting [3]); 1480 nM in the experiment with DU4475 (setting [4]).
As to `CC(C)N1CCOc2c(F)cc(-c3nc(Nc4ccn(C5CCNCC5)c(=O)c4)ncc3F)cc21` [Compound 437, 4-((5-fluoro-4-(8-fluoro-4-isopropyl-3,4-dihydro-2H-benzo[b][1,4]oxazin-6-yl)pyrimidin-2-yl)amino)-1-(piperidin-4-yl)pyridin-2(1H)-one], the IC50 against CDK1 (cyclin B) was found to be 9 nM; on CDK2 (cyclin A) it was 3 nM; on CDK5 (p25), 7.7 nM; on CDK7 (cyclin H), 85 nM; at FMS kinase, 3 nM; in the experiment with MCF-7 (setting [3]) it was 45 nM.
For the compound `CC(C)N1CCOc2c(F)cc(-c3nc(Nc4ccc5c(n4)CCNC5)ncc3F)cc21` [Compound 481, N-(5-fluoro-4-(8-fluoro-4-isopropyl-3,4-dihydro-2H-benzo[b][1,4]oxazin-6-yl)pyrimidin-2-yl)-5,6,7,8-tetrahydro-1,6-naphthyridin-2-amine], the IC50 against CDK1 (cyclin B) was 69 nM; on CDK2 (cyclin A), 24 nM; against FMS kinase it was 426 nM; in the experiment on MCF-7 (setting [3]) it was 85 nM; in the experiment with DU4475 (setting [4]), 345 nM; at PI3Kδ kinase, greater than 20000 nM.
For `CC(C)N1CCOc2c(F)cc(-c3nc(Nc4ccc(N5CCCNCC5)cn4)ncc3F)cc21` [Compound 477, N-(5-(1,4-diazepan-1-yl)pyridin-2-yl)-5-fluoro-4-(8-fluoro-4-isopropyl-3,4-dihydro-2H-benzo[b][1,4]oxazin-6-yl)pyrimidin-2-amine], the IC50 against CDK1 (cyclin B) was 158 nM; on CDK2 (cyclin A), 25 nM; on FMS kinase it was 752 nM; with MCF-7 (setting [1]), 280 nM; in the experiment with DU4475 (setting [2]), 1100 nM; at PI3Kδ kinase it was greater than 50000 nM.
Consider `CC(C)N1CCOc2c(F)cc(-c3nc(Nc4ccc5c(c4)C(=O)NCC5)ncc3F)cc21` [Compound 502, 7-((5-fluoro-4-(8-fluoro-4-isopropyl-3,4-dihydro-2H-benzo[b][1,4]oxazin-6-yl)pyrimidin-2-yl)amino)-3,4-dihydroisoquinolin-1(2H)-one], for which the IC50 on CDK4 is 12 nM; against CDK6 it was 28 nM; against CDK1 (cyclin B), 69 nM; at CDK2 (cyclin A) it was 74 nM; in the experiment on MCF-7 (setting [3]), 435 nM; in the experiment with DU4475 (setting [4]) it was 405 nM.
With `CC(C)N1CCOc2c(F)cc(-c3nc(Nc4ccc5c(c4)CCN(C(=O)CN(C)C)C5)ncc3F)cc21` [Compound 456, 2-(dimethylamino)-1-(6-((5-fluoro-4-(8-fluoro-4-isopropyl-3,4-dihydro-2H-benzo[b][1,4]oxazin-6-yl)pyrimidin-2-yl)amino)-3,4-dihydroisoquinolin-2(1H)-yl)ethan-1-one], the IC50 at CDK4 is 4 nM; on CDK6, 3.5 nM; against CDK1 (cyclin B) it was less than 1 nM; against CDK2 (cyclin A), less than 1 nM; on FMS kinase it was 4 nM; in the experiment on MCF-7 (setting [3]), less than 4 nM. Further, the IC50 on PI3Kδ kinase came to 19500 nM.
For `Fc1cnc(Nc2ccc(N3CCCNCC3)cn2)nc1-c1cc(F)c2c(c1)N(C1CCCC1)CCO2` [Compound 478, N-(5-(1,4-diazepan-1-yl)pyridin-2-yl)-4-(4-cyclopentyl-8-fluoro-3,4-dihydro-2H-benzo[b][1,4]oxazin-6-yl)-5-fluoropyrimidin-2-amine], the IC50 against CDK4 is 9 nM; on CDK6, 27 nM; against CDK1 (cyclin B), 453 nM; against CDK2 (cyclin A) it was 97 nM; on FMS kinase it was 2220 nM; in the experiment with MCF-7 (setting [1]), 665 nM. Besides, the values for the IC50 in the experiment on DU4475 (setting [2]) and on PI3Kδ kinase were 1680 nM and 33700 nM, respectively.
